According to paper PMC9457659, “Exploring The Relative Astringency of Tea Catechins and Distinct Astringent Sensation of Catechins and Flavonol Glycosides via an In Vitro Assay Composed of Artificial Oil Bodies” (Molecules, 2022):

Key:
[1] = target: T1, caleosin–histatin 3 fusion protein (Homo sapiens, UniProt P15516); test: flotation of aggregated artificial oil bodies (emulsion layer thickness), light microscopy; type: binding; settings: equal volumes oil bodies and 2 mM catechin; 100 mM potassium phosphate, 50 mM KCl, pH 7.0; normalised to ECG; indirect, no caleosin-only control
T1 construct: gene HTN3; sesame caleosin lacking residues 101-115 fused with histatin 3; synthetic histatin DNA; E. coli BL21(DE3), insoluble pellet; about 29 kDa; with Caleosin (Peroxygenase)

[2] = target: T1, caleosin–histatin 3 fusion protein; test: atomic force and scanning electron microscopy of artificial oil bodies; type: binding; settings: 5 mM rutin; oil bodies in distilled water, dried on silicon wafer; oil bodies alone set as 100%; indirect, no caleosin-only control

T1 sequence (P15516 20-51): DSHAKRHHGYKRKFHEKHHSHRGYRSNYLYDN
T1 sequence (Q9SQ57 with tags, fused parts or gaps DEL101-115 partner): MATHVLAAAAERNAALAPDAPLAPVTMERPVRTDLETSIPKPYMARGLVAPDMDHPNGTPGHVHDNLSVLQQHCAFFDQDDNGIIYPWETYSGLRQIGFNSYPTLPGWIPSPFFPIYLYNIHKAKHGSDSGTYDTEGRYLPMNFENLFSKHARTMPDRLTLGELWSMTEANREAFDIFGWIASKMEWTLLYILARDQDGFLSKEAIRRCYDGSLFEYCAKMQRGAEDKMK

SMILES | relative astringency (%) [1] | relative surface roughness (%) [2]
O=C(O[C@@H]1Cc2c(O)cc(O)cc2O[C@H]1c1cc(O)c(O)c(O)c1)c1cc(O)c(O)c(O)c1 [GCG, (−)-gallocatechin gallate] | aggregation of artificial oil bodies interacting with each catechin was examined | 
Oc1cc(O)c2c(c1)O[C@H](c1ccc(O)c(O)c1)[C@@H](O)C2 [C, (+)-catechin] | aggregation of artificial oil bodies interacting with each catechin was examined | 
Oc1cc(O)c2c(c1)O[C@H](c1cc(O)c(O)c(O)c1)[C@H](O)C2 [EGC, (−)-epigallocatechin] | aggregation of artificial oil bodies interacting with each catechin was examined | 
Oc1cc(O)c2c(c1)O[C@@H](c1cc(O)c(O)c(O)c1)[C@H](O)C2 [GC, (−)-gallocatechin] | aggregation of artificial oil bodies interacting with each catechin was examined | 
O=C(O[C@@H]1Cc2c(O)cc(O)cc2O[C@H]1c1ccc(O)c(O)c1)c1cc(O)c(O)c(O)c1 [CG, (−)-catechin gallate] | aggregation of artificial oil bodies interacting with each catechin was examined | 
C[C@@H]1O[C@@H](OC[C@H]2O[C@@H](Oc3c(-c4ccc(O)c(O)c4)oc4cc(O)cc(O)c4c3=O)[C@H](O)[C@@H](O)[C@@H]2O)[C@H](O)[C@H](O)[C@H]1O [rutin] |  | a smooth surface was observed on artificial oil bodies complexed with rutin
Oc1cc(O)c2c(c1)O[C@H](c1ccc(O)c(O)c1)[C@H](O)C2 [EC, (−)-epicatechin] | aggregation of artificial oil bodies interacting with each catechin was examined | 
O=C(O[C@@H]1Cc2c(O)cc(O)cc2O[C@@H]1c1cc(O)c(O)c(O)c1)c1cc(O)c(O)c(O)c1 [EGCG, (−)-epigallocatechin gallate] | aggregation of artificial oil bodies interacting with each catechin was examined | 
